Test results taken from article PMC8988824, “Subcutaneous in situ gel delivered leuprolide acetate's consistent and prolonged drug delivery maintains effective testosterone suppression independent of age and weight in men with prostate cancer” (BJUI Compass, 2020).

Experiment: clinical
Settings: male, human, in vivo, sc, 7.5 mg
Procedure: An 8‐week, open‐label, single‐arm study was performed with the objective of evaluating safety, tolerability, and PK following a single dose of 7.5 mg Gel‐LA in surgically castrated men with advanced PCa. Testosterone levels were not evaluated for this study population.
Men aged 45‐85 years with histologically or cytologically proven adenocarcinoma of the prostate who had undergone bilateral orchiectomy at least 2 months prior to study start were eligible. […]
All patients received a single dose of 7.5 mg LA suspended in the ATRIGEL Delivery System (34% w/w Poly [DL‐lactide‐co‐glycolide] and 66% w/w N‐methyl‐2‐pyrrolidone) as a subcutaneous injection into the upper right or upper left quadrant of the abdomen. […] LA concentrations were determined with solid‐phase extraction and high‐performance liquid chromatography followed by radioimmunoassay. […]
Serum concentrations of LA were summarized as mean, standard deviation (SD), % relative SD, median, minimum, and maximum levels. PK parameters included the maximum observed LA concentration (Cmax), time of maximum serum concentration (Tmax), time of last measured LA concentration in serum (tldc), and area under the LA serum concentration vs time curve (AUC). AUC was determined by linear trapezoidal interpolation, and actual times of blood draws were used for the PK analyses. […]

AUC(0-t): 999 ng·h/mL
SMILES: CCNC(=O)[C@@H]1CCCN1C(=O)[C@H](CCCNC(=N)N)NC(=O)[C@H](CC(C)C)NC(=O)[C@@H](CC(C)C)NC(=O)[C@H](Cc1ccc(O)cc1)NC(=O)[C@H](CO)NC(=O)[C@H](Cc1c[nH]c2ccccc12)NC(=O)[C@H](Cc1c[nH]cn1)NC(=O)[C@@H]1CCC(=O)N1 [Leuprolide Acetate, Leuprolide acetate]
